# ChEMBL document CHEMBL1136248, “Further SAR studies on novel small molecule inhibitors of the hepatitis C (HCV) NS5B polymerase” (Bioorg Med Chem Lett, 2003)
# Target: Genome polyprotein (Hepatitis C virus genotype 1a (isolate 1) (HCV), UniProt P26664)
# Assay: Inhibition of Hepatitis C RNA dependent RNA polymerase Nonstructural protein 5B activity.
# Chain of Genome polyprotein (P26664 2421-3011 limits assumed): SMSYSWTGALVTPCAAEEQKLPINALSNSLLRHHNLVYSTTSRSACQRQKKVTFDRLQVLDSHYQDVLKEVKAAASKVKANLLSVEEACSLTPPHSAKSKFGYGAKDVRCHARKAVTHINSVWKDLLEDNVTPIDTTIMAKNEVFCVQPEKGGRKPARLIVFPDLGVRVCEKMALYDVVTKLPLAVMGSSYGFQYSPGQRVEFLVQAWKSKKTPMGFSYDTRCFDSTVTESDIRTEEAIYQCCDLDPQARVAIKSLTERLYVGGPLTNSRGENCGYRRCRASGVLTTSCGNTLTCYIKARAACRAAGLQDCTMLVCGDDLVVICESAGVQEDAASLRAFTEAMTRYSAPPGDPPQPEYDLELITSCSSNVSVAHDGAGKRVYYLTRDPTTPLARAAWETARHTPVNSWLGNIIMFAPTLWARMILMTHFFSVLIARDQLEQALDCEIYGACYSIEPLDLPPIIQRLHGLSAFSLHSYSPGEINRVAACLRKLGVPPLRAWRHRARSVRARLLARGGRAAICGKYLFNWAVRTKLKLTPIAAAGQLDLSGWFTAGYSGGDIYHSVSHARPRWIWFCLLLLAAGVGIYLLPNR
row,Compound,IC50 [µM]
1,O=C(O)[C@H](Cc1ccccc1)N(Cc1cccc(Br)c1)C(=O)c1ccc(F)cc1F,43
2,O=C(O)[C@H](Cc1ccccc1)N(Cc1cccc(Br)c1)C(=O)c1ccc(Cl)cc1,10.6
3,O=C(O)[C@H](Cc1ccccc1)N(Cc1cccc(Br)c1)C(=O)c1ccccc1,> 50
4,O=C(O)[C@H](Cc1ccccc1)N(Cc1cccc(Br)c1)C(=O)c1ccc(Cl)cc1Cl,3.5
5,O=C(O)[C@H](Cc1ccccc1)N(Cc1cccc(Br)c1)S(=O)(=O)c1ccc(Cl)cc1Cl,31
6,O=C(O)[C@H](Cc1ccccc1)N(Cc1cccc(Br)c1)C(=O)c1ccc(Cl)cc1I,2.7
7,O=C(O)[C@H](Cc1ccccc1)N(Cc1cccc(Br)c1)C(=O)c1ccc(Cl)cc1Br,5
8,O=C(O)[C@H](Cc1ccccc1)N(Cc1cccc(Br)c1)C(=O)c1ccc(Cl)c(Cl)c1,30
9,O=C(O)[C@H](Cc1ccccc1)N(Cc1cccc(Br)c1)c1ccc(Cl)cc1Cl,15
10,COc1cc(Cl)ccc1C(=O)N(Cc1cccc(Br)c1)[C@@H](Cc1ccccc1)C(=O)O,11

# The remaining lines, values ahead:
row,IC50 [µM],Compound
1,31,O=C(O)[C@H](Cc1ccccc1)N(Cc1cccc(Br)c1)C(=O)c1ccccc1Cl
2,31,O=C(O)[C@H](Cc1ccccc1)N(Cc1cccc(Br)c1)C(=O)Nc1ccc(Cl)cc1Cl
3,30,O=C(O)[C@H](Cc1ccccc1)N(Cc1cccc(Br)c1)C(=O)c1cccc(Cl)c1
4,10.7,COc1ccc(C(=O)N(Cc2cccc(Br)c2)[C@@H](Cc2ccccc2)C(=O)O)c(OC)c1
5,5.6,CCc1cc(Cl)ccc1C(=O)N(Cc1cccc(Br)c1)[C@@H](Cc1ccccc1)C(=O)O
6,5.9,Cc1ccc(C(=O)N(Cc2cccc(Br)c2)[C@@H](Cc2ccccc2)C(=O)O)c(C)c1
7,26,O=C(O)[C@H](Cc1ccccc1)N(Cc1cccc(Br)c1)Cc1ccc(Cl)cc1Cl
8,3.7,Cc1cc(Cl)ccc1C(=O)N(Cc1cccc(Br)c1)[C@@H](Cc1ccccc1)C(=O)O
9,31,O=C(O)[C@H](Cc1ccccc1)N(Cc1cccc(Br)c1)C(=O)c1ccc(Cl)nc1Cl
10,13,O=C(O)[C@H](Cc1ccccc1)N(Cc1cccc(Br)c1)C(=O)c1c(Cl)cc(Cl)cc1Cl
